Results published in patent publication US8785486B2, “Imidazo[1,2-A]pyridine derivatives and their use as positive allosteric modulators of mGluR2 receptors” (Janssen Pharmaceuticals, Inc., priority 2007, dated 2014).

Key:
[1] = biological target: T1, human mGluR2 receptor (Homo sapiens, UniProt Q14416); assay: [35S]GTPγS binding assay (PAM assay) using membranes from cells transfected with the human mGluR2 receptor; type: biochemical; conditions: membranes of CHO cells with human mGluR2, glutamate at predetermined EC25 concentration, averages of duplicate values of 11-concentration response curves; for EC50: read-out: GTPγS - hR2 PAM pEC50 (converted)
T1 construct: expressed in transfected cells; host or cells: CHO cells
Method: The [^35S]GTPγS binding assay is a functional membrane-based assay used to study G-protein coupled receptor (GPCR) function whereby incorporation of a non-hydrolysable form of GTP, [^35S]GTPγS (guanosine 5′-triphosphate, labelled with […] ^35S), is measured.
CHO-cells were cultured to pre-confluence and stimulated with 5 mM butyrate for 24 hours, prior to washing in PBS, and then collection by scraping in homogenisation buffer (50 mM Tris-HCl buffer, pH 7.4, 4° C.). Cell lysates were homogenized briefly (15 s) using an ultra-turrax homogenizer. The homogenate was centrifuged at 23 500×g for 10 minutes and the supernatant discarded. The pellet was resuspended in 5 mM Tris-HCl, pH 7.4 and centrifuged again (30 000×g, 20 min, 4° C.). The final pellet was resuspended in 50 mM HEPES, pH 7.4 and stored at −80° C. in appropriate aliquots before use. Protein concentration was determined by the Bradford method (Bio-Rad, USA) with bovine serum albumin as standard.
Measurement of mGluR2 positive allosteric modulatory activity of test compounds in membranes containing human mGluR2 was performed using frozen membranes that were thawed and briefly homogenised prior to pre-incubation in 96-well microplates (15 μg/assay well, 30 minutes, 30° C.) in assay buffer (50 mM HEPES pH 7.4, 100 mM NaCl, 3 mM MgCl2, 50 μM GDP, 10 μg/ml saponin,) with increasing concentrations of positive allosteric modulator (from 0.3 nM to 50 μM) and either a minimal pre-determined concentration of glutamate (PAM assay), or no added glutamate. […] After addition of [^35S]GTPγS (0.1 nM, f.c.) to achieve a total reaction volume of 200 μl, microplates were shaken briefly and further incubated to allow [^35S]GTPγS incorporation on activation (30 minutes, 30° C.). The reaction was stopped by rapid vacuum filtration over glass-fibre filter plates (Unifilter 96-well GF/B filter plates, Perkin-Elmer, Downers Grove, USA) microplate using a 96-well plate cell harvester (Filtermate, Perkin-Elmer, USA), and then by washing three times with 300 μl of ice-cold wash buffer (Na2PO4.2H2O 10 mM, NaH2PO4.H2O 10 mM, pH=7.4). Filters were then air-dried, and 40 μl of liquid scintillation cocktail (Microscint-O) was added to each well, and membrane-bound [^35S]GTPγS was measured in a 96-well scintillation plate reader (Top-Count, Perkin-Elmer, USA). Non-specific [^35S]GTPγS binding is determined in the presence of cold 10 μM GTP. Each curve was performed at least once using duplicate sample per data point and at 11 concentrations.
The concentration-response curves of representative compounds of the present invention in the presence of added EC25 of mGluR2 agonist glutamate to determine positive allosteric modulation (PAM), were generated using the Prism GraphPad software (Graph Pad Inc, San Diego, USA). The curves were fitted to a four-parameter logistic equation (Y=Bottom+(Top-Bottom)/(1+10^((Log EC50−X)*Hill Slope) allowing determination of EC50 values. The EC50 is the concentration of a compound that causes a half-maximal potentiation of the glutamate response. This is calculated by subtracting the maximal responses of glutamate in presence of a fully saturating concentration of a positive allosteric modulator from the response of glutamate in absence of a positive allosteric modulator. The concentration producing the half-maximal effect is then calculated as EC50

T1 sequence (Q14416 19-872): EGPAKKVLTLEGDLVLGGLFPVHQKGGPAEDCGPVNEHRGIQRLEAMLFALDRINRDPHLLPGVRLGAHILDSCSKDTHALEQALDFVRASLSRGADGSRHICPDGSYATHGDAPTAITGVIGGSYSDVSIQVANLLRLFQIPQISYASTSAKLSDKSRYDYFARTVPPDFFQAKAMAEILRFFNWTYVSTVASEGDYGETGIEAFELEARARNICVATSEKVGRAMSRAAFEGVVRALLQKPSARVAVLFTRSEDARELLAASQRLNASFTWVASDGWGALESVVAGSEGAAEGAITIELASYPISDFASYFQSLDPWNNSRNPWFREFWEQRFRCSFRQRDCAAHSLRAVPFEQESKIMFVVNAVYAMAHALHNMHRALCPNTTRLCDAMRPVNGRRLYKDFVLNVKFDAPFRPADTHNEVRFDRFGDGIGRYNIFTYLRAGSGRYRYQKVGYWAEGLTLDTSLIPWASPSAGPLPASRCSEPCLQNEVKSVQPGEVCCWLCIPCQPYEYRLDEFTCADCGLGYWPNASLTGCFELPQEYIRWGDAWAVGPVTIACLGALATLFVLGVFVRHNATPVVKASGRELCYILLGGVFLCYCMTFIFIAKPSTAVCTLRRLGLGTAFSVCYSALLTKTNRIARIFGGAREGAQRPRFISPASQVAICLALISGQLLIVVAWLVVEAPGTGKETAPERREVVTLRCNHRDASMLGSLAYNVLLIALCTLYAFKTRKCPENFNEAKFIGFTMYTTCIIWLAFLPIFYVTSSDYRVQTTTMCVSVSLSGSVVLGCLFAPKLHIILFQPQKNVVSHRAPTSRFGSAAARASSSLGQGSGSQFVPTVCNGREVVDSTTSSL

GTPγS - hR2 PAM pEC50 [1] | melting point [°C] | EC50 [1] [µM] | SMILES
6.07 | 239 |  | N#Cc1c(N2CCN(c3ncccn3)CC2)ccn2c(CC(F)(F)F)cnc12 [Example 2, 7-(4-Pyrimidin-2-yl-piperazin-1-yl)-3-(2,2,2-trifluoro-ethyl)-imidazo[1,2-a]pyridine-8-carbonitrile]
 | 126.8 to 131 | 0.107 | CCCc1cnc2c(C#N)c(N3CCC(c4cccc(C(F)(F)F)c4)CC3)ccn12 [Example 5]
6.81 | 161 |  | CCCc1cnc2c(C#N)c(N3CCC(c4ccccc4)CC3)ccn12 [Example 6]
 | 201.1 | 0.316 | CCCc1cnc2c(C#N)c(N3CCC(O)(c4ccccc4)CC3)ccn12 [Example 8]
 | 159 | 0.316 | CCCc1cnc2c(C#N)c(-c3ccc(Oc4cccnc4C)cc3)ccn12 [Example 9]
 | 181.8 | 0.427 | CCCc1cnc2c(C#N)c(-c3ccc(Oc4ccnc(C)c4)cc3)ccn12 [Example 11]
6.30 | 150 |  | CCc1cnc2c(C#N)c(N3CCC(c4ccccc4)CC3)ccn12 [Example 12]
6.19 | 194.4 |  | CCCc1cnc2c(C#N)c(N3CCN(c4nc(C)cc(C)n4)CC3)ccn12 [Example 14]
6.01 | 148.2 |  | CCCc1cnc2c(C#N)c(N3CCN(c4ccccc4)CC3)ccn12 [Example 15]
 | 265 | 1 | CCc1cnc2c(C#N)c(N3CCC(O)(c4ccccc4)CC3)ccn12 [Example 16]
5.64 | 231.4 |  | CCc1cnc2c(C#N)c(N3CCN(c4nc(C)cc(C)n4)CC3)ccn12 [Example 19]
 | 220 |  | N#Cc1c(N2CCN(c3ccccc3)CC2)ccn2c(-c3ccccc3)cnc12 [Example 20]
 | 176.4 |  | CCCc1cnc2c(C#N)c(N3CCN(c4ncccn4)CC3)ccn12 [Example 22]
 | 197.6 |  | CCc1cnc2c(C#N)c(-c3ccc(Oc4ccnc(C)c4)c(F)c3)ccn12 [Example 25]
 | 128.5 | 0.132 | N#Cc1c(N2CCC(c3ccccc3)CC2)ccn2c(CCCC(F)(F)F)cnc12 [Example 28, 7-(4-Phenyl-piperidin-1-yl)-3-(4,4,4-trifluoro-butyl)-imidazo[1,2-a]pyridine-8-carbonitrile]
 | 272.1 | 0.417 | N#Cc1c(N2CCC(O)(c3ccccc3)CC2)ccn2c(CC(F)(F)F)cnc12 [Example 30]
 | 139.3 | 0.0813 | N#Cc1c(N2CCC(c3ccccc3F)CC2)ccn2c(CC(F)(F)F)cnc12 [Example 31]
 | > 300 | 0.0813 | N#Cc1c(N2CCC(c3cccc(C(F)(F)F)c3)CC2)ccn2c(CC(F)(F)F)cnc12 [Example 32]
 | 186.5 | 0.0617 | N#Cc1c(N2CCC(c3ccc(F)cc3F)CC2)ccn2c(CC(F)(F)F)cnc12 [Example 33]
6.35 | > 300 |  | Cc1cc(C)nc(N2CCN(c3ccn4c(CC(F)(F)F)cnc4c3C#N)CC2)n1 [Example 34]
 | 154.8 | 0.603 | FC(F)(F)Cc1cnc2c(Cl)c(CN3CCC(F)(c4ccccc4)CC3)ccn12 [Example 35]
 | 161.4 |  | FC(F)(F)Cc1cnc2c(Cl)c(CN3CCN(c4ncccn4)CC3)ccn12 [Example 36, 8-Chloro-7-(4-pyrimidin-2-yl-piperazin-1-ylmethyl)-3-(2,2,2-trifluoro-ethyl)imidazo[1,2-a]pyridine]

GTPγS - hR2 PAM pEC50 [1] | melting point [°C] | EC50 [1] [µM] | SMILES
 | 156.9 | 3.02 | Fc1ccc(N2CCN(Cc3ccn4c(CC(F)(F)F)cnc4c3Cl)CC2)c(F)c1 [Example 37]
 | 181.2 |  | N#Cc1c(CN2CCC(O)(c3ccc(F)cc3)CC2)ccn2c(CC(F)(F)F)cnc12 [Example 38]
 | 145 | 1.29 | N#Cc1c(CN2CCC(F)(c3ccccc3)CC2)ccn2c(CC(F)(F)F)cnc12 [Example 40]
 | 161.1 | 0.437 | Fc1ccccc1C1CCN(Cc2ccn3c(CC(F)(F)F)cnc3c2Cl)CC1 [Example 41]
 | 196 |  | COc1cccc(C2(O)CCN(Cc3ccn4c(CC(F)(F)F)cnc4c3C#N)CC2)c1 [Example 43]
 | 152 | 0.324 | N#Cc1c(CN2CCC(c3ccccc3F)CC2)ccn2c(CC(F)(F)F)cnc12 [Example 44]
 | 150.2 | 1.74 | Fc1ccccc1N1CCN(Cc2ccn3c(CC(F)(F)F)cnc3c2Cl)CC1 [Example 46]
 | 267 | 0.229 | N#Cc1c(N2CCC(c3ccccc3)CC2)ccn2c(-c3ccc(F)cc3F)cnc12 [Example 47]
 | 145.4 | 0.0933 | N#Cc1c(N2CCC(c3ccccc3)CC2)ccn2c(CCC3CC3)cnc12 [Example 48]
 | 220.7 | 0.195 | FC(F)(F)Cc1cnc2c(Cl)c(N3CCC(F)(c4ccccc4)CC3)ccn12 [Example 50, 8-Chloro-7-(4-fluoro-4-phenyl-piperidin-1-yl)-3-(2,2,2-trifluoro-ethyl)-imidazo[1,2-a]pyridine]
 | 263.1 | 0.158 | FC(F)(F)Cc1cnc2c(Cl)c(N3CCC(c4ccccc4)CC3)ccn12 [Example 51, 8-Chloro-7-(4-phenyl-piperidin-1-yl)-3-(2,2,2-trifluoro-ethyl)-imidazo[1,2-a]pyridine]
 | 155.4 | 0.24 | CC(C)(O)c1ccc(C2CCN(c3ccn4c(CC(F)(F)F)cnc4c3C#N)CC2)cc1 [Example 54]
 | 212.9 | 0.0977 | N#Cc1c(N2CCC3(CC2)OCc2ccccc23)ccn2c(CC(F)(F)F)cnc12 [Example 58]
 | 289.8 | 0.166 | N#Cc1c(N2CCC(O)(c3ccccc3F)CC2)ccn2c(CC(F)(F)F)cnc12 [Example 62]
 | 189.3 | 0.389 | CC(C)(O)c1ccc(C2CCN(c3ccn4c(CC(F)(F)F)cnc4c3Cl)CC2)cc1 [Example 63]
 | 213.9 | 1.55 | Cc1c(N2CCC(c3ccccc3)CC2)ccn2c(CC(F)(F)F)cnc12 [Example 64]
 | 234.7 | 0.178 | CC(C)(O)c1ccccc1C1CCN(c2ccn3c(CC(F)(F)F)cnc3c2Cl)CC1 [Example 65, 2-(2-{1-[8-Chloro-3-(2,2,2-trifluoro-ethyl)-imidazo[1,2-a]pyridin-7-yl]-piperidin-4-yl}-phenyl)-propan-2-ol]
 | 174.4 | 0.282 | FC(F)(F)Cc1cnc2c(Cl)c(N3CCC4(CC3)OCc3ccccc34)ccn12 [Example 66]
 | 227.5 | 0.145 | CC(C)(O)c1ccccc1C1CCN(c2ccn3c(CC(F)(F)F)cnc3c2C#N)CC1 [Example 67, 7-{4-[2-(1-Hydroxy-1-methyl-ethyl)-phenyl]-piperidin-1-yl}-3-(2,2,2-trifluoro-ethyl)-imidazo[1,2-a]pyridine-8-carbonitrile]
 | 214 | 0.0933 | N#Cc1c(N2CCC(F)(c3ccccc3)CC2)ccn2c(CC(F)(F)F)cnc12 [Example 68, 7-(4-Fluoro-4-phenyl-piperidin-1-yl)-3-(2,2,2-trifluoro-ethyl)-imidazo[1,2-a]pyridine-8-carbonitrile]
 | 164.2 |  | FC(F)(F)Cc1cnc2c(Cl)c(CN3CCC4(CC3)OCc3ccccc34)ccn12 [Example 123]
